Measured values: patent US10111874B2, “Combination therapies for treatment of cancer” (Araxes Pharma LLC, priority 2014, dated 2018)

Biological target: T1, KRAS G12C 1-169, his-tagged protein, GDP-loaded (Homo sapiens, UniProt P01116, G12C)
T1 construct: KRAS G12C 1-169, his-tagged protein, GDP-loaded
Assay: Biochemical assay: covalent binding to KRAS G12C analyzed by mass spectrometry; further: test concentration or dose not given here
Details: compounds 1-47, measured at 24 h

T1 sequence (P01116 1-169 isoform P01116-2 G12C): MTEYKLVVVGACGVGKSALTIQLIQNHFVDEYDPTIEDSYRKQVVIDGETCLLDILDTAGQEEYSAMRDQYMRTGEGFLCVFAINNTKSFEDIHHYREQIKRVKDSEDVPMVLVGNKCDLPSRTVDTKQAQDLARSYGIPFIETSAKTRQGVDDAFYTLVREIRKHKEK

Which Binding % does the source give for `C=CC(=O)N1CCN(c2ncnc3cc(Cl)c(-c4cccnc4)cc23)CC1` [Compound I-20, 1-(4-(7-chloro-6-(pyridin-3-yl)quinazolin-4-yl)piperazin-1-yl)prop-2-en-1-one] here?
The Binding % was “+ (+indicates binding activity from 5% to 25%)”.

For `C=CC(=O)N1CCN(c2ncnc3cc(Cl)c(-c4ccccc4O)cc23)CC1` [Compound I-15, 1-(4-(7-chloro-6-(2-hydroxyphenyl)quinoazlin-4-yl)piperazin-1-yl)prop-2-en-1-one], which Binding % is on record?
Its Binding % is “+++ (+++indicates binding activity greater than 50% and up to 75%)”.

Same assay, conditions: compounds 48-246, measured at 2 h

For `C=CC(=O)N1CCN(c2ncnc3cc(Oc4ccccc4)c(Cl)cc23)CC1` [Compound I-76, 1-(4-(6-chloro-7-phenoxyquinazolin-4-yl)piperazin-1-yl)prop-2-en-1-one], which Binding % is on record?
Its Binding % is “+ (+indicates binding activity from 5% to 25%)”.

`CN(C)C/C=C/C(=O)N1CCN(c2ncnc3cc(-c4ccccc4F)c(Cl)cc23)CC1` [Compound I-228, (E)0-1-(4-(6-chloro-7-(2-fluorophenyl)quinazolin-4-yl)piperazin-1-yl)-4-(dimethylamino)but-2-en-1-one] was tested. Which Binding % did it give?
Its Binding % is “+ (+indicates binding activity from 5% to 25%)”.

With `C=CC(=O)N1CCN(c2ncnc3cc(-c4ccc(Cl)cc4O)c(Cl)cc23)CC1` [Compound I-117, 1-(4-(6-chloro-7-(4-chloro-2-hydroxyphenyl)quinazolin-4-yl)piperazin-1-yl)prop-2-en-1-one] as the molecule, how does the Binding % read?
Its Binding % is “+++ (+++indicates binding activity greater than 50% and up to 75%)”.

Which Binding % does the source give for `C=CC(=O)N1CCN(c2ncnc3cc(-c4ccc(F)cc4F)c(Cl)cc23)CC1CC#N` (centres unmarked) [Compound I-139, 2-(1-acryloyl-4-(6-chloro-7-(2,4-difluorophenyl)quinazolin-4-yl)piperazin-2-yl)acetonitrile] here?
The Binding % was “++++ (++++indicates binding activity greater than 75%)”.

`C=CC(=O)N1CCN(c2ncnc3cc(-c4ccc(F)cc4O)c(Cl)cc23)CC1` [Compound I-133, 1-0(4-(6-chloro-7-(4-fluoro-2-hydroxyphenyl)quinazolin-4-yl)piperazin-1-yl)prop-2-en-1-one] was tested. Which Binding % did it give?
Its Binding % is “++ (++indicates binding activity greater than 25% and up to 50%)”.

Which Binding % does the source give for `C=CC(=O)N1CCN(c2ncnc3cc(-c4cccc5[nH]ncc45)c(Cl)cc23)CC1` [Compound I-167, 1-(4-(6-chloro-7-(1H-indazol-4-yl)quinazolin-4-yl)piperazin-1-yl)prop-2-en-1-one] here?
The Binding % was “+ (+indicates binding activity from 5% to 25%)”.

Which Binding % does the source give for `C#CC1CN(c2ncnc3cc(-c4ccc(F)cc4F)c(Cl)cc23)CCN1C(=O)C=C` (centres unmarked) [Compound I-195, 1-(4-(6-chloro-7-(2,4-difluorophenyl)quinazolin-4-yl)-2-ethynylpiperazin-1-yl)prop-2-en-1-one] here?
Its Binding % is “++++ (++++indicates binding activity greater than 75%)”.

Which Binding % does the source give for `C=CC(=O)N1CCN(c2ncnc3cc(-c4ccccc4Cl)c(Cl)cc23)CC1` [Compound I-72, 1-(4-(6-chloro-7-(2-chlorophenyl)quinazolin-4-yl)piperazin-1-yl)prop-2-en-1-one] here?
The Binding % was “++ (++indicates binding activity greater than 25% and up to 50%)”.

`C=CC(=O)N1CCN(c2ncnc3c(F)c(-c4ccc(F)cc4F)c(Cl)cc23)CC1` [Compound I-224, 1-(4-(6-chloro-7-(2,4-difluorophenyl)-8-fluoroquinazolin-4-yl)piperazin-1-yl)prop-2-en-1-one] was tested. Which Binding % did it give?
The Binding % was “+++ (+++indicates binding activity greater than 50% and up to 75%)”.

For `C=CC(=O)N1CCN(c2nc(C)nc3cc(Cl)c(-c4ccc(Cl)cc4)cc23)CC1C#N` (centres unmarked) [Compound I-56, 1-acryloyl-4-(7-chloro-6-(4-chlorophenyl)-2-methylquinazolin-4-yl)piperazine-2-carbonitrile], which Binding % is on record?
Its Binding % is “++++ (++++indicates binding activity greater than 75%)”.

How did the Binding % turn out when `C=CC(=O)N1CCN(c2ncnc3cc(-c4cc(C5CC5)ccc4F)c(Cl)cc23)CC1` [Compound I-147, 1-(4-(6-chloro-7-(5-cyclopropyl-2-fluorophenyl)quinazolin-4-yl)piperazin-1-yl)prop-2-en-1-one] was run?
The Binding % was “++ (++indicates binding activity greater than 25% and up to 50%)”.

Which Binding % does the source give for `C=CC(=O)N1CCN(c2c(C#N)cnc3cc(-c4c(O)cccc4F)c(Cl)cc23)CC1` [Compound I-220, 4-(4-acryloylpiperazin-- yl)-6-chloro-7-(2-fluoro-6-hydroxyphenyl)quinoline-3-carbonitrile] here?
The Binding % was “+++ (+++indicates binding activity greater than 50% and up to 75%)”.

How did the Binding % turn out when `C=CC(=O)N1CCN(c2ncnc3cc(-c4nc(N)ncc4C)c(Cl)cc23)CC1` [Compound I-179, 1-(4-(7-(2-amino-5-methylpyrimidin-4-yl)-6-chloroquinazolin-4-yl)piperazin-1-yl)prop-2-en-1-one] was run?
Its Binding % is “+ (+indicates binding activity from 5% to 25%)”.

Same assay, conditions: compounds 247-342, measured at 30 min

How did the Binding % turn out when `C=CC(=O)N1CCN(c2ncnc3c(Cl)c(-c4c(OC)ccc5ccccc45)c(Cl)cc23)CC1` [Compound I-286, 1-(4-(6,8-dichloro-7-(2-methoxynaphthalen-1-yl)quinazolin-4-yl)piperazin-1-yl)prop-2-en-1-one] was run?
Its Binding % is “+ (+indicates binding activity from 5% to 25%)”.

With `Cc1ccc2[nH]ncc2c1-c1c(Cl)cc2c(N3CCN(C(=O)/C=C/CN)CC3)ncnc2c1F` [Compound 311, (E)-4-amino-1-(4-(6-chloro-8-fluoro-7-(5-methyl-1H-indazol-4-yl)quinazolin-4-yl)piperazin-1-yl)but-2-en-1-one] as the molecule, how does the Binding % read?
Its Binding % is “+++ (+++indicates binding activity greater than 50% and up to 75%)”.

For `C=CC(=O)N1CCN(c2c(C#N)cnc3c(F)c(-c4cc(O)cc5ccccc45)c(Cl)cc23)CC1` [Compound I-291, 4-(4-acryloylpiperazin-1-yl)-6-chloro-8-fluoro-7-(3-hydroxynaphthalen-1-yl)quinoline-3-carbonitrile], which Binding % is on record?
Its Binding % is “++++ (++++indicates binding activity greater than 75%)”.

With `C=CC(=O)N1CCN(c2ncnc3c(F)c(-c4c(C)ccc5[nH]ncc45)c(F)cc23)CC1` [Compound 297, 1-(4-(6,8-difluoro-7-(5-methyl-1H-indazol-4-yl)quinazolin-4-yl)piperazin-1-yl)prop-2-en-1-one] as the molecule, how does the Binding % read?
Its Binding % is “+ (+indicates binding activity from 5% to 25%)”.

Same assay, conditions: determined at 2 hrs

`C=CC(=O)N1CC(N2CCN(C(=O)CNc3cc(C4CCC4)c(Cl)cc3O)CC2)C1` [II-53, 1-(3-(4-(2-(4-chloro-5-cyclobutyl-2-hydroxyphenylamino)acetyl)piperazin-1-yl)azetidin-1-yl)prop-2-en-1-one] was tested. Which Binding % did it give?
Its Binding % is “++ (++indicates binding activity greater than 20%)”.

Same assay, conditions: determined at 24 hrs

`C=CC(=O)N1CC(N2CCN(C(=O)C(C)Nc3cc(Cl)c(Cl)cc3O)CC2)C1` (centres unmarked) [II-31, 1-(3-(4-(2-(4,5-dichloro-2-hydroxyphenylamino)-propanoyl)-piperazin-1-yl)azetidin-1-yl)prop-2-en-1-one] was tested. Which Binding % did it give?
Its Binding % is “++++ (++++indicates binding activity greater than 50%)”.

With `C=CC(=O)N1CC(N2CCN(C(=O)c3cc(-c4cc(Cl)ccc4Cl)c(Cl)cc3O)CC2)C1` [II-48, 1-(3-(4-(2′,5′,6-trichloro-4-hydroxybiphenyl-carbonyl)piperazin-1-yl)azetidin-1-yl)prop-2-en-1-one] as the molecule, how does the Binding % read?
The Binding % was “++ (++indicates binding activity greater than 15% and up to 25%)”.

`C=CC(=O)N1CC(N2CCN(C(=O)CNc3cc(O)c(Cl)c(Cl)c3)CC2)C1` [II-27, 1-(3-(4-(2-(3,4-dichloro-5-hydroxyphenyl-amino)acetyl)piperazin-1-yl)azetidin-1-yl)prop-2-en-1-one] was tested. Which Binding % did it give?
Its Binding % is “++ (++indicates binding activity greater than 15% and up to 25%)”.
